Data as given in publication PMC8632988, “Inhibition of SYK and cSrc kinases can protect bone and cartilage in preclinical models of osteoarthritis and rheumatoid arthritis” (Scientific Reports, 2021).
pIC50: −log10 of the molar value.

Legend:
Assay in all cases: Kinase selectivity profile assay
Assay type in all cases: biochemical
[1] = molecular target: T1, ALK1/ACVRL1 (Homo sapiens, UniProt P37023); conditions: 500 nM; relative to DMSO; read-out: Residual enzymatic activity
T1 construct: purchased Reaction Biology Corporation
How it was run: (§1)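 Radiometric kinase assay run by a standard protocol. Unbound phosphate was removed by washing filters in phosphoric acid, and product radioactivity gave percent remaining kinase activity versus DMSO vehicle reactions. Run in duplicate.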

[2] = molecular target: T2, ALK3/BMPR1A (Homo sapiens, UniProt P36894); conditions: 500 nM; relative to DMSO; read-out: Residual enzymatic activity
T2 construct: purchased Reaction Biology Corporation
How it was run: as §1

[3] = molecular target: T3, ARAF (Homo sapiens, UniProt P10398); conditions: 500 nM; relative to DMSO; read-out: Residual enzymatic activity
T3 construct: purchased Reaction Biology Corporation
How it was run: as §1

[4] = molecular target: T4, CAMK2g (Homo sapiens, UniProt Q13555); conditions: 500 nM; relative to DMSO; read-out: Residual enzymatic activity
T4 construct: purchased Reaction Biology Corporation
T4 sequence (Q13555 whole entry): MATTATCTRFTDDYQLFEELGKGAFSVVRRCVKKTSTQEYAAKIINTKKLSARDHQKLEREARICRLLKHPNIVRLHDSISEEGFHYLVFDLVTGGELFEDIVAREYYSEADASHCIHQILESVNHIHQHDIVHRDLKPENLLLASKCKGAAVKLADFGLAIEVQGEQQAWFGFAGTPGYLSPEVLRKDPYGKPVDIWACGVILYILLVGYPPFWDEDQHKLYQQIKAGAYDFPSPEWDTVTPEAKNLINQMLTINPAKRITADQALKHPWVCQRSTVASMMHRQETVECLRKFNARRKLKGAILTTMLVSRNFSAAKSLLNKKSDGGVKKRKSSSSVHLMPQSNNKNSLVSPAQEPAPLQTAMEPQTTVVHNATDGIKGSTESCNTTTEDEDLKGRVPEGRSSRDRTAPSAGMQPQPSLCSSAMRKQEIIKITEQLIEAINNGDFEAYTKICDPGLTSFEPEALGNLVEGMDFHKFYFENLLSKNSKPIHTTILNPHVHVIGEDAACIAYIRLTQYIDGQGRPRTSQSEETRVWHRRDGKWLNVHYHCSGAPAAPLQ
How it was run: as §1

[5] = molecular target: T5, CDK1/cyclin A (Homo sapiens, UniProt P06493); conditions: 500 nM; relative to DMSO; read-out: Residual enzymatic activity
T5 construct: purchased Reaction Biology Corporation
T5 sequence (P06493 whole entry): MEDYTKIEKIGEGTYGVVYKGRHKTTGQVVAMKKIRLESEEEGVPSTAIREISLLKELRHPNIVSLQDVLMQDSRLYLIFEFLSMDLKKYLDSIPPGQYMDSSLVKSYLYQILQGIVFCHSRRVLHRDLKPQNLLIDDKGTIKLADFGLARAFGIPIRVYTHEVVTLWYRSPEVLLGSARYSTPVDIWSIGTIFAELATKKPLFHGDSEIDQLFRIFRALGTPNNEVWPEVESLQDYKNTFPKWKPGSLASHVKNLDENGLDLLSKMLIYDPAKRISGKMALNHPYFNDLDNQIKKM
T5 sequence (P20248 whole entry partner): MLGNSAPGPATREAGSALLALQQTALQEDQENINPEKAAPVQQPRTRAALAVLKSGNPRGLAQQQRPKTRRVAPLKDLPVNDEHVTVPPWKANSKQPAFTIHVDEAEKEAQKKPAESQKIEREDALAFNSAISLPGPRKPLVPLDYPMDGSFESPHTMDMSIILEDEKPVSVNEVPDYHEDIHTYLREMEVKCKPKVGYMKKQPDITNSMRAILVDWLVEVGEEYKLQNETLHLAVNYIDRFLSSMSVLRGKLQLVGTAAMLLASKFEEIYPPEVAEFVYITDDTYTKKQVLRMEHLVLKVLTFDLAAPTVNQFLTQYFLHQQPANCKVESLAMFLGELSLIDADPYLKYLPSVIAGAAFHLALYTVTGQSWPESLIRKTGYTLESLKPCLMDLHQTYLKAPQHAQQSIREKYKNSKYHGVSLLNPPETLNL
How it was run: as §1

[6] = molecular target: T6, CDK2/cyclin E (Homo sapiens, UniProt P24941); conditions: 500 nM; relative to DMSO; read-out: Residual enzymatic activity
T6 construct: purchased Reaction Biology Corporation
How it was run: as §1

[7] = molecular target: T7, DAPK2 (Homo sapiens, UniProt Q9UIK4); conditions: 500 nM; relative to DMSO; read-out: Residual enzymatic activity
T7 construct: purchased Reaction Biology Corporation
T7 sequence (Q9UIK4 whole entry): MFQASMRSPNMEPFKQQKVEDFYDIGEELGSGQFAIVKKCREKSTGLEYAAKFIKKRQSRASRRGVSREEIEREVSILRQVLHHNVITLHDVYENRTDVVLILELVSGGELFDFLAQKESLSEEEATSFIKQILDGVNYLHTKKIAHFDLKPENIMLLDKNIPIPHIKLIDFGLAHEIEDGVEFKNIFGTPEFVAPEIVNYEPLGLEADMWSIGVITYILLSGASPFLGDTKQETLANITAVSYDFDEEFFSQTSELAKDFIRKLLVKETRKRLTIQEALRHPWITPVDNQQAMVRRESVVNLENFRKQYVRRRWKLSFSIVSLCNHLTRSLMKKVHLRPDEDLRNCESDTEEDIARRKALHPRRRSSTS
How it was run: as §1

[8] = molecular target: T8, DMPK (Homo sapiens, UniProt Q09013); conditions: 500 nM; relative to DMSO; read-out: Residual enzymatic activity
T8 construct: purchased Reaction Biology Corporation
How it was run: as §1

[9] = molecular target: T9, EPHA5 (Homo sapiens, UniProt P54756); conditions: 500 nM, relative to DMSO
T9 construct: purchased Reaction Biology Corporation
How it was run: as §1

[10] = molecular target: T10, EPHB3 (Homo sapiens, UniProt P54753); conditions: 500 nM, relative to DMSO
T10 construct: purchased Reaction Biology Corporation
How it was run: as §1

[11] = molecular target: T11, ERBB4/HER4 (Homo sapiens, UniProt Q15303); conditions: 500 nM; relative to DMSO; read-out: Residual enzymatic activity
T11 construct: purchased Reaction Biology Corporation
How it was run: as §1

[12] = molecular target: T12, HIPK2 (Homo sapiens, UniProt Q9H2X6); conditions: 500 nM; relative to DMSO; read-out: Residual enzymatic activity
T12 construct: purchased Reaction Biology Corporation
T12 sequence (Q9H2X6 whole entry): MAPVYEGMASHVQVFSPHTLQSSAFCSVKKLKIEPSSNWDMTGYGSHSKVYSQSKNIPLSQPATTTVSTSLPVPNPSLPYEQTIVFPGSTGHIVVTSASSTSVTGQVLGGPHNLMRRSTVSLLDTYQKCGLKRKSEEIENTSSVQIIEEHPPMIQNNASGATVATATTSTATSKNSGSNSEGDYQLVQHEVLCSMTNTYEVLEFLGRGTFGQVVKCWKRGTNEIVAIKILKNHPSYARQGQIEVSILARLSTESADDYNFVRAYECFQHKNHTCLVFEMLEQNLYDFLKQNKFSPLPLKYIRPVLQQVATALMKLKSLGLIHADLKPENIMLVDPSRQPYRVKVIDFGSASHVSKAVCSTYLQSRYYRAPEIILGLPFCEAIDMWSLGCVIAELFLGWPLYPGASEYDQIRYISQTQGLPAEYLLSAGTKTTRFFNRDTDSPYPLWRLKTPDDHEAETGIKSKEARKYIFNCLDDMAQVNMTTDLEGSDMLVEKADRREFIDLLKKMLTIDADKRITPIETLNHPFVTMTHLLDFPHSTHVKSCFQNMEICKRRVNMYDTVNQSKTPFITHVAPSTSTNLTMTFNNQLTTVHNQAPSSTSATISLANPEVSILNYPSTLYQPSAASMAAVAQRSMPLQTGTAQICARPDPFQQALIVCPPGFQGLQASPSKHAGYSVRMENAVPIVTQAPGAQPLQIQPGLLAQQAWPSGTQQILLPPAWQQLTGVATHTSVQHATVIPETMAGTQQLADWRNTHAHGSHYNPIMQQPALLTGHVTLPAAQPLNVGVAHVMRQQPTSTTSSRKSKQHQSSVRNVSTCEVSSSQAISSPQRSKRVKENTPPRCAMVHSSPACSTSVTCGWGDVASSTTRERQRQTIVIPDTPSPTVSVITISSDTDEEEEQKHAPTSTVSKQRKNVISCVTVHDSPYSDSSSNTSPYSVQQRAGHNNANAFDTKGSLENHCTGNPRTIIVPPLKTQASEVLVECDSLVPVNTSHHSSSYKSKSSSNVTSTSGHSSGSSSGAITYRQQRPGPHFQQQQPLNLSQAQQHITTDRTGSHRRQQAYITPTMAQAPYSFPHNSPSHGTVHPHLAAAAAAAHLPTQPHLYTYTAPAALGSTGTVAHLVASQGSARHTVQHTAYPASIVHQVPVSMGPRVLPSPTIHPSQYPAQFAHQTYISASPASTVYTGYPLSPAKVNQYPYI
How it was run: as §1

[13] = molecular target: T13, HIPK4 (Homo sapiens, UniProt Q8NE63); conditions: 500 nM; relative to DMSO; read-out: Residual enzymatic activity
T13 construct: purchased Reaction Biology Corporation
How it was run: as §1

[14] = molecular target: T14, Haspin (Homo sapiens, UniProt Q8TF76); conditions: 500 nM; relative to DMSO; read-out: Residual enzymatic activity
T14 construct: purchased Reaction Biology Corporation
How it was run: as §1

[15] = molecular target: T15, IRR/INSRR (Homo sapiens, UniProt P14616); conditions: 500 nM; relative to DMSO; read-out: Residual enzymatic activity
T15 construct: purchased Reaction Biology Corporation
How it was run: as §1

[16] = molecular target: T16, LCK2/ICK (Homo sapiens, UniProt Q9UPZ9); conditions: 500 nM; relative to DMSO; read-out: Residual enzymatic activity
T16 construct: purchased Reaction Biology Corporation
T16 sequence (Q9UPZ9 whole entry): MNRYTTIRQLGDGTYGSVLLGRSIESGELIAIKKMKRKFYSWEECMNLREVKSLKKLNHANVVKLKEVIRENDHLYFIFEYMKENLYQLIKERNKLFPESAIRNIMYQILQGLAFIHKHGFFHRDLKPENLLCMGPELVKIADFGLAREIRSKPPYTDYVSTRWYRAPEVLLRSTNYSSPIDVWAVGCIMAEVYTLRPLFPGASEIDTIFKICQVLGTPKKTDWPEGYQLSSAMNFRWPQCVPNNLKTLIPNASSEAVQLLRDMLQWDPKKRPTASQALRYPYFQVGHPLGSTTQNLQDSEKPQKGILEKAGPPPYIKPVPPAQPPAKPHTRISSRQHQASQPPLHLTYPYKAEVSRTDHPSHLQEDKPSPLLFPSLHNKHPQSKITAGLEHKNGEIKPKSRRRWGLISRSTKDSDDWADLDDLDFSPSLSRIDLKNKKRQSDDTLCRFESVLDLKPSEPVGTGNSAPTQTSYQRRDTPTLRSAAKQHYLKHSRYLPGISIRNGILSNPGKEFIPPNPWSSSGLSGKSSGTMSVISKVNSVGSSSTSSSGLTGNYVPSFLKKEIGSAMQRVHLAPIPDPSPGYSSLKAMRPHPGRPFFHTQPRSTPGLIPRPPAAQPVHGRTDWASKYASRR
How it was run: as §1

[17] = molecular target: T17, MAPKAPK3 (Homo sapiens, UniProt Q16644); conditions: 500 nM; relative to DMSO; read-out: Residual enzymatic activity
T17 construct: purchased Reaction Biology Corporation
How it was run: as §1

[18] = molecular target: T18, MAPKAPK5/PRAK (Homo sapiens, UniProt Q8IW41); conditions: 500 nM; relative to DMSO; read-out: Residual enzymatic activity
T18 construct: purchased Reaction Biology Corporation
How it was run: as §1

[19] = molecular target: T19, MEK3 (Homo sapiens, UniProt P46734); conditions: 500 nM; relative to DMSO; read-out: Residual enzymatic activity
T19 construct: purchased Reaction Biology Corporation
How it was run: as §1

[20] = molecular target: T20, MELK (Homo sapiens, UniProt Q14680); conditions: 500 nM; relative to DMSO; read-out: Residual enzymatic activity
T20 construct: purchased Reaction Biology Corporation
How it was run: as §1

[21] = molecular target: T21, NEK1 (Homo sapiens, UniProt Q96PY6); conditions: 500 nM; relative to DMSO; read-out: Residual enzymatic activity
T21 construct: purchased Reaction Biology Corporation
How it was run: as §1

[22] = molecular target: T22, NEK6 (Homo sapiens, UniProt Q9HC98); conditions: 500 nM; relative to DMSO; read-out: Residual enzymatic activity
T22 construct: purchased Reaction Biology Corporation
How it was run: as §1

[23] = molecular target: T23, PKAcb (Homo sapiens, UniProt P22694); conditions: 500 nM; relative to DMSO; read-out: Residual enzymatic activity
T23 construct: purchased Reaction Biology Corporation
How it was run: as §1

[24] = molecular target: T24, PKAcg (Homo sapiens, UniProt P22612); conditions: 500 nM; relative to DMSO; read-out: Residual enzymatic activity
T24 construct: purchased Reaction Biology Corporation
How it was run: as §1

[25] = molecular target: T25, PKCd (Homo sapiens, UniProt Q05655); conditions: 500 nM; relative to DMSO; read-out: Residual enzymatic activity
T25 construct: purchased Reaction Biology Corporation
How it was run: as §1

[26] = molecular target: T26, RIPK2 (Homo sapiens, UniProt O43353); conditions: 500 nM; relative to DMSO; read-out: Residual enzymatic activity
T26 construct: purchased Reaction Biology Corporation
How it was run: as §1

[27] = molecular target: T27, SLK/STK2 (Homo sapiens, UniProt Q9H2G2); conditions: 500 nM; relative to DMSO; read-out: Residual enzymatic activity
T27 construct: purchased Reaction Biology Corporation
How it was run: as §1

[28] = molecular target: T28, SRPK1 (Homo sapiens, UniProt Q96SB4); conditions: 500 nM; relative to DMSO; read-out: Residual enzymatic activity
T28 construct: purchased Reaction Biology Corporation
How it was run: as §1

[29] = molecular target: T29, SSTK/TSSK6 (Homo sapiens, UniProt Q9BXA6); conditions: 500 nM; relative to DMSO; read-out: Residual enzymatic activity
T29 construct: purchased Reaction Biology Corporation
How it was run: as §1

[30] = molecular target: T30, STK16 (Homo sapiens, UniProt O75716); conditions: 500 nM; relative to DMSO; read-out: Residual enzymatic activity
T30 construct: purchased Reaction Biology Corporation
T30 sequence (O75716 whole entry): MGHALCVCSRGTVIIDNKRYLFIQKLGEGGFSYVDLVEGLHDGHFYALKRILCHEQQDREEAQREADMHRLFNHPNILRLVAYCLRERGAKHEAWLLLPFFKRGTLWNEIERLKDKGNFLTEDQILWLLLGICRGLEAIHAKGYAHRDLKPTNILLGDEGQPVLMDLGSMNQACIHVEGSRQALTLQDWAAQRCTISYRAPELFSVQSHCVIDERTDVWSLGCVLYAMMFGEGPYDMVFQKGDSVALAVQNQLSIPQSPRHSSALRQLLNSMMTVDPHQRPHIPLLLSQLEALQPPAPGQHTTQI
How it was run: as §1

[31] = molecular target: T31, STK22D/TSSK1 (Homo sapiens, UniProt Q9BXA7); conditions: for remaining activity at 0.5 µM: 500 nM, relative to DMSO, read-out: Residual enzymatic activity
T31 construct: purchased Reaction Biology Corporation (Malvern, PA, USA)
T31 sequence (Q9BXA7 1-367): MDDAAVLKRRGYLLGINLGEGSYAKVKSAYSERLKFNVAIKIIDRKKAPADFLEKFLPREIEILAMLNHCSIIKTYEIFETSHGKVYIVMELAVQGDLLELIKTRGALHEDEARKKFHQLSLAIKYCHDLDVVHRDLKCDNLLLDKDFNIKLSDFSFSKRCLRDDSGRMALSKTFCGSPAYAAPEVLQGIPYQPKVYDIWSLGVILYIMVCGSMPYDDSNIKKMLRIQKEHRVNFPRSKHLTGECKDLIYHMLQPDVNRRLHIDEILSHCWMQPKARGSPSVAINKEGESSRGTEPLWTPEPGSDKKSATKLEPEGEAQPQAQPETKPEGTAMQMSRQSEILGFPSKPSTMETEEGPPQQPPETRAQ
How it was run: as §1

[32] = molecular target: T32, TGFBR2 (Homo sapiens, UniProt P37173); conditions: 500 nM; relative to DMSO; read-out: Residual enzymatic activity
T32 construct: purchased Reaction Biology Corporation
How it was run: as §1

[33] = molecular target: T33, TTBK2 (Homo sapiens, UniProt Q6IQ55); conditions: 500 nM; relative to DMSO; read-out: Residual enzymatic activity
T33 construct: purchased Reaction Biology Corporation
How it was run: as §1

[34] = molecular target: T34, ULK2 (Homo sapiens, UniProt Q8IYT8); conditions: 500 nM; relative to DMSO; read-out: Residual enzymatic activity
T34 construct: purchased Reaction Biology Corporation
T34 sequence (Q8IYT8 whole entry): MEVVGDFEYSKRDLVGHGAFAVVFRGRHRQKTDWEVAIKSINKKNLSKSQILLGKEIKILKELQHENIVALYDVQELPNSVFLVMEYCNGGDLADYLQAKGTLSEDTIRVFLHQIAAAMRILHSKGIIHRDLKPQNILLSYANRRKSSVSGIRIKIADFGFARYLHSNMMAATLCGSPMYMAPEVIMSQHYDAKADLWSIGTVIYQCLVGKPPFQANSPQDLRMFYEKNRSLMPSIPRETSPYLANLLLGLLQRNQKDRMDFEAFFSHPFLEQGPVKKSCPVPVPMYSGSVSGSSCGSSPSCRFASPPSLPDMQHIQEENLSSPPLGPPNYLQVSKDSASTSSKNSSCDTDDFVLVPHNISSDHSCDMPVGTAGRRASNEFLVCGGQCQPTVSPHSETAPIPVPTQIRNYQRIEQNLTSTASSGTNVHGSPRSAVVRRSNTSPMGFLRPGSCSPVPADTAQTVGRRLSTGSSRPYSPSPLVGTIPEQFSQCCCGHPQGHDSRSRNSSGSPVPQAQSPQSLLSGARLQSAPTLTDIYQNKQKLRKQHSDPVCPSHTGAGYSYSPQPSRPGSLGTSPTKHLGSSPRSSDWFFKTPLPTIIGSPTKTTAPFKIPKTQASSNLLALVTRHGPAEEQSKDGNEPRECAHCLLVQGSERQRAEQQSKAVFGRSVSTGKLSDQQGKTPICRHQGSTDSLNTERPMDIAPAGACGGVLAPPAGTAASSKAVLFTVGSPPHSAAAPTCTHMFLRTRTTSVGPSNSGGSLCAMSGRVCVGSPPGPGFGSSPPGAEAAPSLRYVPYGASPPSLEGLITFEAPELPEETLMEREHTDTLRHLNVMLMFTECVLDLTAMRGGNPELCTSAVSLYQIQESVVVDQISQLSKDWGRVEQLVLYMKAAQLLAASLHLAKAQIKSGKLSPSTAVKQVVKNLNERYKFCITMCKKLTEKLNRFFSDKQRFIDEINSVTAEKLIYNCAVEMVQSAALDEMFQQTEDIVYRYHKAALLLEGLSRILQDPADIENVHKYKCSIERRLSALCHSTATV
How it was run: as §1

[35] = molecular target: T35, ZAP70 (Homo sapiens, UniProt P43403); conditions: 500 nM; relative to DMSO; read-out: Residual enzymatic activity
T35 construct: purchased Reaction Biology Corporation
How it was run: as §1

[36] = read-out: Residual enzymatic activity

Structure (SMILES) | remaining activity at 0.5 µM [1] | remaining activity at 0.5 µM [2] | remaining activity at 0.5 µM [3] | remaining activity at 0.5 µM [4] | remaining activity at 0.5 µM [5] | remaining activity at 0.5 µM [6] | remaining activity at 0.5 µM [7] | remaining activity at 0.5 µM [8] | remaining activity at 0.5 µM [11] | remaining activity at 0.5 µM [12] | remaining activity at 0.5 µM [13] | remaining activity at 0.5 µM [14] | remaining activity at 0.5 µM [15] | remaining activity at 0.5 µM [16] | remaining activity at 0.5 µM [17] | remaining activity at 0.5 µM [18] | remaining activity at 0.5 µM [19] | remaining activity at 0.5 µM [20] | remaining activity at 0.5 µM [21] | remaining activity at 0.5 µM [22] | also measured
COc1cc(Nc2ncnc(Nc3cc4c(cn3)NC(=O)C(C)(C)O4)n2)cc(OC)c1OC [MT-SYK-03] | 126% | 130% | 59.7% | 100% | 110% | 82.1% | 98.4% | 94.3% | 79.4% | 103% | 112% | 101% | 89% | 110% | 102% | 92.3% | 119% | 86.6% | 52.7% | 103% | Residual enzymatic activity [9]: 76.4%; Residual enzymatic activity [10]: 94.2%; remaining activity at 0.5 µM [23]: 98.4%; remaining activity at 0.5 µM [24]: 106%; remaining activity at 0.5 µM [25]: 110%; remaining activity at 0.5 µM [26]: 84.7%; remaining activity at 0.5 µM [27]: 81%; remaining activity at 0.5 µM [28]: 108%; remaining activity at 0.5 µM [29]: 103%; remaining activity at 0.5 µM [30]: 50.6%; remaining activity at 0.5 µM [31]: 49.9%; pIC50 ([31]; 10-dose mode, threefold serial dilution from 10 μM): 6.70; remaining activity at 0.5 µM [32]: 116%; remaining activity at 0.5 µM [33]: 109%; remaining activity at 0.5 µM [34]: 111%; remaining activity at 0.5 µM [35]: 93.4%
COc1cc(Nc2ncc(F)c(Nc3ccc4c(n3)NC(=O)C(C)(C)O4)n2)cc(OC)c1OC [R406, reference compound] | 100% | 120% | 41% | 101% | 74.2% | 60% | 103% | 90.5% | 68.2% | 94.9% | 92.9% | 91.5% | 73.6% | 99.8% | 102% | 99.4% | 131% | 54.7% | 7% | 70.5% | remaining activity at 0.5 µM [9, 36]: 60.9%; remaining activity at 0.5 µM [10, 36]: 84.4%; remaining activity at 0.5 µM [23]: 70.1%; remaining activity at 0.5 µM [24]: 91.7%; remaining activity at 0.5 µM [25]: 97.7%; remaining activity at 0.5 µM [26]: 73%; remaining activity at 0.5 µM [27]: 31.4%; remaining activity at 0.5 µM [28]: 101%; remaining activity at 0.5 µM [29]: 98.7%; remaining activity at 0.5 µM [30]: 6.3%; remaining activity at 0.5 µM [31]: 9.6%; remaining activity at 0.5 µM [32]: 97.1%; remaining activity at 0.5 µM [33]: 95.4%; remaining activity at 0.5 µM [34]: 37.9%; remaining activity at 0.5 µM [35]: 43.5%
